Experiments:
[1] = target: Matrix metalloproteinase-9 (Homo sapiens, UniProt P14780); type: cell-based;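 note: inhibition of isolated MMP-9 enzyme activity toward a synthetic peptide substrate, from the DrugMatrix protease screening panel; in other assays of this panel Not Active means under 50% inhibition at 10 µM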
Cathepsin G = target: T1, Cathepsin G (Homo sapiens, UniProt P08311); type: tissue-based; settings: neutrophil;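 note: inhibition of Cathepsin G enzyme activity, tested on an AMC-conjugated peptide substrate; in other assays of this panel Not Active means under 50% inhibition at 10 µM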
T1 sequence (P08311 whole entry): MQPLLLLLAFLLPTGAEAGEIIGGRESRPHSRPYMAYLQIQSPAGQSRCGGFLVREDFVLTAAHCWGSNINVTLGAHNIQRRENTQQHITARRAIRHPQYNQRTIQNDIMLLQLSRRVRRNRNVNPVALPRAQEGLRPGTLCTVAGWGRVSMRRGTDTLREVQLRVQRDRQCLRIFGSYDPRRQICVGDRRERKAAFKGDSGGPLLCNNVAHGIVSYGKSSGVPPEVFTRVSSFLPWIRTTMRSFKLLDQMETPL

Histamine H2 receptor = Histamine H2 receptor (Homo sapiens, UniProt P25021); type: cell membranes, CHO-K1, Membrane; settings: cho-k1; note: in other assays of this panel Not Active means under 50% inhibition at 10 µM
Histamine H2 receptor, sequence (P25021 whole entry): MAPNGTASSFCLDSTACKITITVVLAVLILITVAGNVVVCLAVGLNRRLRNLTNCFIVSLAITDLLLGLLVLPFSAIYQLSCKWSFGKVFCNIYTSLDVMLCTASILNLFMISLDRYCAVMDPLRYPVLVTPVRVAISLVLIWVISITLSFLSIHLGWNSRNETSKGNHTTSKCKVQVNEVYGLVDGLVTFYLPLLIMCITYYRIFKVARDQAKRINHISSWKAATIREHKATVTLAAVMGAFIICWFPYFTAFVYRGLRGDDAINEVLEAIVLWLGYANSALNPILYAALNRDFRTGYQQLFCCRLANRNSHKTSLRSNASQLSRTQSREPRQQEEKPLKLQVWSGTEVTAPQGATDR

D(4) dopamine receptor = target: T2, D(4) dopamine receptor (Homo sapiens, UniProt P21917); test: DRUGMATRIX: Dopamine D4.2 radioligand binding (ligand: [3H] Spiperone); type: cell membranes, CHO-K1, Membrane; settings: cho-k1; Not Active = under 50% inhibition at 10 µM
T2 sequence (P21917 whole entry): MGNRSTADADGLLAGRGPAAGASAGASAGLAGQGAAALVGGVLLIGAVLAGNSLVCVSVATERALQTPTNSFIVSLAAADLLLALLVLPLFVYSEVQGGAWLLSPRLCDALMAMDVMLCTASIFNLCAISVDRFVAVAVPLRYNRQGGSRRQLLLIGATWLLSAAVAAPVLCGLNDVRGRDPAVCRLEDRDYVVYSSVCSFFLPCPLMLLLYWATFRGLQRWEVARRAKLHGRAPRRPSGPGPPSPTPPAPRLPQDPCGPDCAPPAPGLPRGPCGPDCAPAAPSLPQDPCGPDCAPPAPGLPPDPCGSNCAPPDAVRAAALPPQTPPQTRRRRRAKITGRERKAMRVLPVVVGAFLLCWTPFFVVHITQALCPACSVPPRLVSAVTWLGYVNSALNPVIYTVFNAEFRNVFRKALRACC

[2] = target: T3, Cholecystokinin receptor type A (Homo sapiens, UniProt P32238); type: cell membranes, Membrane; settings: 1321-n1; note: in other assays of this panel Not Active means under 50% inhibition at 10 µM
T3 sequence (P32238 whole entry): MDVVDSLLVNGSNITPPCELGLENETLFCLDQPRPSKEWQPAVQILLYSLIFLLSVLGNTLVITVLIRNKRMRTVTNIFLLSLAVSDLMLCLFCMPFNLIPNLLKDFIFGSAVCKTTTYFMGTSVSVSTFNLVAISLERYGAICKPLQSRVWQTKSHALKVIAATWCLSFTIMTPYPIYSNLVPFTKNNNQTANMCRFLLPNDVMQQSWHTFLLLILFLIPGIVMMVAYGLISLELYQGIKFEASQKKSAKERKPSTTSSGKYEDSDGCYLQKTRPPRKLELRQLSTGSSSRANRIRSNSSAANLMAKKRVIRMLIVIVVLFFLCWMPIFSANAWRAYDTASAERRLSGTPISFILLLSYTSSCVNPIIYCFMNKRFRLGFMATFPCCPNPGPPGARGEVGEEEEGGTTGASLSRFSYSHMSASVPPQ

[3] = target: T4, Receptor-type tyrosine-protein phosphatase C (Homo sapiens, UniProt P08575); set-up: species or system Escherichia coli
T4 sequence (P08575 whole entry): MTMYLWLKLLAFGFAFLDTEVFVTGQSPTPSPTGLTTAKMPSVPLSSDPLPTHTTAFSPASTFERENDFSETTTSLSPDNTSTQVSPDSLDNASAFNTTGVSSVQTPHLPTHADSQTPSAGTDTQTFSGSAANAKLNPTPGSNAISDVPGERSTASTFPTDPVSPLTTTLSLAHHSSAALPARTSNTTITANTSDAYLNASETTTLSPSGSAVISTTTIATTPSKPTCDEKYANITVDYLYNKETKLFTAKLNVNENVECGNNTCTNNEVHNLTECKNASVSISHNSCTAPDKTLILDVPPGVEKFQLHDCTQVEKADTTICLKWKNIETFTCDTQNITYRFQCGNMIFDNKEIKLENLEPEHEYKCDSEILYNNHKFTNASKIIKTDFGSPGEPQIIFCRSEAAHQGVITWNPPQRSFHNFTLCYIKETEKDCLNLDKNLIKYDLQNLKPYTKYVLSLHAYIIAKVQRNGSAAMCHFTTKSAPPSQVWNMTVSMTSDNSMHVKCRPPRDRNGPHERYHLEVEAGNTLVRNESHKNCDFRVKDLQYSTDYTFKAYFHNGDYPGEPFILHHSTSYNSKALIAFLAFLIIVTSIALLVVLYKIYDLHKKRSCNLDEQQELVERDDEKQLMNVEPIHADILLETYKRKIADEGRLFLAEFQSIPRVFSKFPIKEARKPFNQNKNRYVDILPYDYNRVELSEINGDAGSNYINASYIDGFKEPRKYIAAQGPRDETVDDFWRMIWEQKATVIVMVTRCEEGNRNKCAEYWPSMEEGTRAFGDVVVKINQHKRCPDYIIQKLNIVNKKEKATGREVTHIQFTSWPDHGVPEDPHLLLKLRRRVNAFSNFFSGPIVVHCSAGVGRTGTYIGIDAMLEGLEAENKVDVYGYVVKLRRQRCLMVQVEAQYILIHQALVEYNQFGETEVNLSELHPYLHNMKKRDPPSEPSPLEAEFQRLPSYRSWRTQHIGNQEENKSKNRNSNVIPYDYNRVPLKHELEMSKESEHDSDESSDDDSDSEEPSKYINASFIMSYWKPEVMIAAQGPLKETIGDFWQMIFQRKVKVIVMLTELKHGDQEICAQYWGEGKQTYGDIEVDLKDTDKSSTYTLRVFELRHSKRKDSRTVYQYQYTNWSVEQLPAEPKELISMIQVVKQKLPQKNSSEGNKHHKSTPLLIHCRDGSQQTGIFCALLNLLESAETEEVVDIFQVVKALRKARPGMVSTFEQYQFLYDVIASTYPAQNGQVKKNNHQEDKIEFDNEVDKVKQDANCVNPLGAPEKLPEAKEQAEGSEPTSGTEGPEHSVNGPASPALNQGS

[4] = DRUGMATRIX: Potassium Channel [KATP] radioligand binding (ligand: [3H] Glyburide); type: cell membranes, Membrane; settings: hit-t15; Not Active = under 50% inhibition at 10 µM

Matrix metalloproteinase-9, sequence (P14780 whole entry): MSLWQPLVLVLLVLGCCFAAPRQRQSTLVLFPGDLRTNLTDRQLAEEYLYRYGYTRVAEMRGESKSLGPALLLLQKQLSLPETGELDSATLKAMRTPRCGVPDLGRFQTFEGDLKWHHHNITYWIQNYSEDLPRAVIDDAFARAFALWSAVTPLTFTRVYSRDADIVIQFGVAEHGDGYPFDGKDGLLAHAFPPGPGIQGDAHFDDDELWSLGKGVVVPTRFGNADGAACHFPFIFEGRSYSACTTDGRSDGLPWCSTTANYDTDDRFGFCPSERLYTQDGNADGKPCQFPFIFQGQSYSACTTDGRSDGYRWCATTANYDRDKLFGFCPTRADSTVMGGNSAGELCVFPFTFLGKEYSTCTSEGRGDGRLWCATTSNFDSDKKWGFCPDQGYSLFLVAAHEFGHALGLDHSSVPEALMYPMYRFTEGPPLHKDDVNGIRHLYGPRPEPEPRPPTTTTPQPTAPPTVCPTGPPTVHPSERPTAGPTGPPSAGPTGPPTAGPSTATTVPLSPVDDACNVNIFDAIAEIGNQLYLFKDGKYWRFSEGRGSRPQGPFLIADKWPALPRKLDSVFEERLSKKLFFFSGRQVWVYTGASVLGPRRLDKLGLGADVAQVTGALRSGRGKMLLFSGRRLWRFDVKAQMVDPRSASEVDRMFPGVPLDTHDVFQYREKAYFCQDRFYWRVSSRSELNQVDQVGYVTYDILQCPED

CN[C@H](CC(C)C)C(=O)N[C@H]1C(=O)N[C@@H](CC(N)=O)C(=O)N[C@H]2C(=O)N[C@H]3C(=O)N[C@H](C(=O)N[C@H](C(=O)O)c4cc(O)cc(O)c4-c4cc3ccc4O)[C@H](O)c3ccc(c(Cl)c3)Oc3cc2cc(c3O[C@@H]2O[C@H](CO)[C@@H](O)[C@H](O)[C@H]2O[C@H]2C[C@](C)(N)[C@H](O)[C@H](C)O2)Oc2ccc(cc2Cl)[C@H]1O [VANCOMYCIN]
Not Active: IC50 [1] | IC50 (Cathepsin G) | IC50 (Histamine H2 receptor) | IC50 (D(4) dopamine receptor) | IC50 [2] | IC50 [3] | IC50 [4] | Ki [4]

CC(=O)[C@H]1CC[C@H]2[C@@H]3CCC4=CC(=O)CC[C@]4(C)[C@H]3CC[C@]12C [PROGESTERONE]
Not Active: IC50 [1] | IC50 (Cathepsin G) | IC50 (Histamine H2 receptor) | IC50 (D(4) dopamine receptor) | IC50 [2] | IC50 [3] | IC50 [4] | Ki [4]

C[C@](N)(Cc1ccc(O)cc1)C(=O)O [METYROSINE]
Not Active: IC50 [1] | IC50 (Cathepsin G) | IC50 (Histamine H2 receptor) | IC50 (D(4) dopamine receptor) | IC50 [2] | IC50 [3] | IC50 [4] | Ki [4]

CC(C)[C@H](N)C(=O)OCCOCn1cnc2c(=O)nc(N)[nH]c21 [VALACYCLOVIR]
Not Active: IC50 [1] | IC50 (Cathepsin G) | IC50 (Histamine H2 receptor) | IC50 (D(4) dopamine receptor) | IC50 [2] | IC50 [3] | IC50 [4] | Ki [4]

Cc1cc(NS(=O)(=O)c2ccc(N)cc2)no1 [SULFAMETHOXAZOLE]
Not Active: IC50 [1] | IC50 (Cathepsin G) | IC50 (Histamine H2 receptor) | IC50 (D(4) dopamine receptor) | IC50 [2] | IC50 [3] | IC50 [4] | Ki [4]

CC1=C(/C=C/C(C)=C/C=C/C(C)=C\C(=O)O)C(C)(C)CCC1 [ISOTRETINOIN]
Not Active: IC50 [1] | IC50 (Cathepsin G) | IC50 (Histamine H2 receptor) | IC50 (D(4) dopamine receptor) | IC50 [2] | IC50 [3] | IC50 [4] | Ki [4]

C[C@]12Cc3c[nH]nc3C[C@@H]1CC[C@@H]1[C@@H]2CC[C@@]2(C)[C@H]1CC[C@]2(C)O [STANOZOLOL]
Not Active: IC50 [1] | IC50 (Cathepsin G) | IC50 (Histamine H2 receptor) | IC50 (D(4) dopamine receptor) | IC50 [2] | IC50 [3] | IC50 [4] | Ki [4]

CC(=O)S[C@@H]1CC2=CC(=O)CC[C@]2(C)[C@H]2CC[C@@]3(C)[C@@H](CC[C@@]34CCC(=O)O4)[C@H]12 [SPIRONOLACTONE]
Not Active: IC50 [1] | IC50 (Cathepsin G) | IC50 (Histamine H2 receptor) | IC50 (D(4) dopamine receptor) | IC50 [2] | IC50 [3] | IC50 [4] | Ki [4]

CN(C)[C@@H]1C(O)=C(C(N)=O)C(=O)[C@@]2(O)C(O)=C3C(=O)c4c(O)cccc4[C@@](C)(O)[C@H]3C[C@@H]12 [TETRACYCLINE]
Not Active: IC50 [1] | IC50 (Cathepsin G) | IC50 (Histamine H2 receptor) | IC50 (D(4) dopamine receptor) | IC50 [2] | IC50 [3] | IC50 [4] | Ki [4]

Nc1ccc(S(=O)(=O)Nc2ccnn2-c2ccccc2)cc1 [SULFAPHENAZOLE]
Not Active: IC50 [1] | IC50 (Cathepsin G) | IC50 (Histamine H2 receptor) | IC50 (D(4) dopamine receptor) | IC50 [2] | IC50 [3] | IC50 [4] | Ki [4]

COc1c(C)c2c(c(O)c1C/C=C(\C)CCC(=O)OCCN1CCOCC1)C(=O)OC2 [MYCOPHENOLATE MOFETIL]
Not Active: IC50 [1] | IC50 (Cathepsin G) | IC50 (Histamine H2 receptor) | IC50 (D(4) dopamine receptor) | IC50 [2] | IC50 [3] | IC50 [4] | Ki [4]

Nc1nnc(-c2cccc(Cl)c2Cl)c(N)n1 [LAMOTRIGINE]
Not Active: IC50 [1] | IC50 (Cathepsin G) | IC50 (Histamine H2 receptor) | IC50 (D(4) dopamine receptor) | IC50 [2] | IC50 [3] | IC50 [4] | Ki [4]

NC(=O)c1ccccc1O [SALICYLAMIDE]
Not Active: IC50 [1] | IC50 (Cathepsin G) | IC50 (Histamine H2 receptor) | IC50 (D(4) dopamine receptor) | IC50 [2] | IC50 [3] | IC50 [4] | Ki [4]

C=CC[C@@H]1/C=C(\C)C[C@H](C)C[C@H](OC)[C@H]2O[C@@](O)(C(=O)C(=O)N3CCCC[C@H]3C(=O)O[C@H](/C(C)=C/[C@@H]3CC[C@@H](O)[C@H](OC)C3)[C@H](C)[C@@H](O)CC1=O)[C@H](C)C[C@@H]2OC [TACROLIMUS ANHYDROUS]
Not Active: IC50 [1] | IC50 (Cathepsin G) | IC50 (Histamine H2 receptor) | IC50 (D(4) dopamine receptor) | IC50 [2] | IC50 [3] | IC50 [4] | Ki [4]

c1ccc2[nH]c(-c3cscn3)nc2c1 [THIABENDAZOLE]
Not Active: IC50 [1] | IC50 (Cathepsin G) | IC50 (Histamine H2 receptor) | IC50 (D(4) dopamine receptor) | IC50 [2] | IC50 [3] | IC50 [4] | Ki [4]
